We go through four compounds from patent US20210169837A1, “COMPOSITION FOR REDUCING NEW-ONSET DIABETES” (MOCHIDA PHARMACEUTICAL CO., LTD., priority 2012, published 2021).

The subject of data set [1] is Human fetal rhabdomyosarcoma cell line (RD cell, ATCC). The experiment in a line: 2-3H-deoxyglucose uptake by differentiated skeletal muscle cells. Format: cell-based. The following applies: for Uptake of radioactivity (2-3H-deoxyglucose) per 1 μg of protein: statin = 30 μM simvastatin, EPA = 50 μM sodium eicosapentate. The protocol: (1) Human fetal rhabdomyosarcoma cell line (RD cell, ATCC) was inoculated in 24 well plate and cultured in a growth medium (10% fetal bovine serum (FCS), Dulbecco's modified Eagle medium (DMEM), low glucose, 1% nonessential amino acid) to confluency. (2) The cells were then cultivated in differentiation medium (2% horse serum (HS), Dulbecco's modified Eagle medium (DMEM), low glucose, 1% nonessential amino acid) for 3 to 5 days for differentiation into muscle cell.
(3) After the incubation, the medium was removed by aspiration, and the cells were incubated in an uptake buffer (140 mM NaCl, 5 mM KCl, 2.5 mM MgSO4, 20 mM HEPES, 1 mM CaCl2, pH=7.4) supplemented with 10 μM of 2-3H-deoxyglucose at 37° C. for 12 minutes. (4) After the incubation, the cells were washed 4 times with cold stop solution (PBS(−)supplemented with 10 mM glucose).
The PBS(−) contained 0.2 g of NaH2PO4.2H2O, 3.225 g of Na2HPO4.12H2O, and 8 g of NaCl in 1 L, and the pH was at 7.2 to 7.4.
(5) After the washing, 500 μL/well of aqueous solution of 0.4N sodium hydroxide was added, and the cells were lyzed by heating to 56° for 20 minutes. (6) 300 μL of the well content (cell lysate) was mixed with 4 mL of Atomlight (manufactured by PerkinElmer), and ^3H count was measured with a liquid scintillation counter. The well content (cell lysate) was also measured for its protein concentration to calculate the ^3H count per 1 μg of the protein.
FIG. 1 is the graph showing the uptake of radioactivity (y axis) in relation to the incubation time (x axis) for each group.

For data set [2], the system named is aged people of at least 66 years old administered with statin. The following applies: compared to the case of pravastatin; cited from earlier work.

Regarding `CCC(C)(C)C(=O)O[C@H]1C[C@@H](C)C=C2C=C[C@H](C)[C@H](CC[C@@H]3C[C@@H](O)CC(=O)O3)[C@H]21` [Statin, simvastatin], in data set [1] (48 hr of incubation, vs control group, 30 μM simvastatin (with or without 50 μM EPA)), the “rate of decrease of radioactivity uptake” value was “about 73%”. Besides, the “Uptake of radioactivity (2-3H-deoxyglucose) per 1 μg of protein” value was found to be 563 dpm/μg protein in data set [1] (incubation time 1 hr), 489 dpm/μg protein in data set [1] (incubation time 6 hr), 343 dpm/μg protein in data set [1] (incubation time 24 hr) and 170 dpm/μg protein in data set [1] (incubation time 48 hr).

In the case of `CC(C)c1c(C(=O)Nc2ccccc2)c(-c2ccccc2)c(-c2ccc(F)cc2)n1CC[C@@H](O)C[C@@H](O)CC(=O)O` [atorvastatin], the “risk of the incidence of the diabetes compared to pravastatin” value (from here on “risk … compared to pravastatin”) in data set [2] is on record as “significantly increased”.

With `CC[C@H](C)C(=O)O[C@H]1C[C@@H](C)C=C2C=C[C@H](C)[C@H](CC[C@@H]3C[C@@H](O)CC(=O)O3)[C@H]21` [lovastatin], the “risk … compared to pravastatin” value in data set [2] is listed as “no significant difference”.

Turning to `CC(C)c1nc(N(C)S(C)(=O)=O)nc(-c2ccc(F)cc2)c1/C=C/[C@@H](O)C[C@@H](O)CC(=O)O` [rosuvastatin], in data set [2], the “risk … compared to pravastatin” value is “significantly increased”.
